Data from patent publication US11964971B2, “Methods and compositions for modulating splicing” (Skyhawk Therapeutics, Inc., priority 2019, dated 2024).
Where two headings read alike, the source gives them in different places.

Assays:
SMN protein = SMN protein assay (MSD) in SMA patient fibroblasts (GM03813); type: cell-based, human
In short: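 Absolute SMN protein measured by Mesoscale Discovery assay in lysates, calibrated per plate with SMN standards (1–19.5 μg/ml). Cells: GM03813 SMA fibroblasts, 7000/well, 48 h compound exposure at doses of 2.5 μM down to 0.6 nM.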

MDR1 (P-gp) [1] = experiment: MDCK-MDR1 permeability assay, blood-brain-barrier penetration potential; details: dog, MDCK-MDR1, pH 7.4, MDCK-MDR1 Efflux Ratio
Experimental: (§1) Experimental Procedure: MDR1-MDCK cell monolayers are grown to confluence on collagen-coated, microporous membranes in 12-well assay plates. The permeability assay buffer is Hanks' balanced salt solution containing 10 mM HEPES and 15 mM glucose at a pH of 7.4. The buffer in the receiver chamber also contained 1% bovine serum albumin. The dosing solution concentration is 5 μM of test article in the assay buffer. Cell monolayers are dosed on the apical side (A-to-B) or basolateral side (B-to-A) and incubated at 37° C. with 5% CO2 in a humidified incubator. Samples are taken from the donor and receiver chambers at 120 minutes. Each determination is performed in duplicate. The flux of lucifer yellow is also measured post-experimentally for each monolayer to ensure no damage was inflicted to the cell monolayers during the flux period. All samples are assayed by LC-MS/MS using electrospray ionization.
(§2) Analytical Method: Liquid Chromatography • Column: Waters ACQUITY UPLC BEH Phenyl 30×2.1 mm, 1.7 μm • M.P. Buffer: 25 mM ammonium formate buffer, pH 3.5 • Aqueous Reservoir (A): 90% water, 10% buffer • Organic Reservoir (B): 90% acetonitrile, 10% buffer • Flow Rate: 0.7 mL/minute • Gradient Program:
(§3) • Total Run Time: 1.00 minute • Autosampler: 2 μL injection volume • Wash1: water/methanol/2-propanol:1/1/1; with 0.2% formic acid • Wash2: 0.1% formic acid in water • Brain Penetration • Potential Classification: A-B Papp≥3.0 and Efflux Ratio<3.0: High • A-B Papp≥3.0 and 10>Efflux Ratio≥3.0: Moderate • A-B Papp≥3.0 and Efflux Ratio≥10: Low • A-B Papp<3.0: Low

[2] = system: MDR1-MDCK cell monolayers; experiment: as above
Experimental: as §1, §2, §3

MDR1 [3] = experiment: as above; details: dog, MDCK-MDR1, pH 7.4
Experimental: as §1, §2, §3

[4] = system: MDR1-MDCK cell monolayers; details: dog, MDCK-MDR1, 120 min, 5 μM, pH 7.4
Experimental: as §1, §2, §3

SMN FL and SMN Δ7 = experiment: Quantitative splicing assay (SMN) in SMA patient fibroblasts (GM03813); type: cell-based; details: Homo sapiens, Fibroblast; class symbol; read-out: SMN2 Splicing FL EC50 (nM)*
Experimental: Spinal muscular atrophy (SMA) patient fibroblasts (GM03813, Coriell) are plated in 96-well plates at 50,000 cells/well. […] Treated cells are lysed and cDNA synthesized using the Fast Advanced Cells-to-Ct kit (Thermofisher A35378) according to the manufacturer's instructions. 2 μL of each cDNA are used in qPCR reactions. […] Reactions are run in a Quant Studio 6 qPCR instrument with default settings.

MDR1 [5] = experiment: in vitro; details: dog; for Papp A→B at 120 min, 5 μM: MDCK-MDR1, pH 7.4, MDCK-MDR1: Papp A-B (10^−6, cm/s); for Papp B→A at 120 min, 5 μM: MDCK-MDR1, pH 7.4, MDCK-MDR1: Papp B-A (10^−6, cm/s)
Experimental: as §1, §2, §3

MDR1 (P-gp) [6] = experiment: in vitro; details: dog, MDCK-MDR1, pH 7.4
Experimental: as §1, §2, §3

[7] = dog, MDCK-MDR1, 120 min, 5 μM, pH 7.4

Row | Compound | EC50 (SMN protein) [nM] | efflux ratio at 120 min, 5 μM (MDR1 (P-gp) [1]) | MDCK-MDR1: % Recov A-B (%) ([2]; A-B) | MDCK-MDR1: % Recov B-A (%) ([2]; B-A) | Papp A→B at 120 min, 5 μM (MDR1 [3]) [×10⁻⁶ cm/s] | Papp B→A at 120 min, 5 μM (MDR1 [3]) [×10⁻⁶ cm/s] | MDCK-MDR1: % Recov A-B (%) [4] [%] | MDCK-MDR1: % Recov B-A (%) [4] [%] | MDCK-MDR1: Papp A-B (10^−6, cm/s) [4] | MDCK-MDR1: Papp B-A (10^−6, cm/s) [4] | MDCK-MDR1 Efflux Ratio [2, 7] | EC50 (SMN FL and SMN Δ7) [nM] | Papp A→B at 120 min, 5 μM (MDR1 [5]) [×10⁻⁶ cm/s] | Papp B→A at 120 min, 5 μM (MDR1 [5]) [×10⁻⁶ cm/s] | efflux ratio at 120 min, 5 μM (MDR1 (P-gp) [6]) | MDCK-MDR1: Papp A-B (10^−6, cm/s) ([2]; A-B) | MDCK-MDR1: Papp B-A (10^−6, cm/s) ([2]; B-A) | MDCK-MDR1 Efflux Ratio ([2]; MDCK-MDR1)
1 | CN(c1cnc(-c2ccc(-c3cn[nH]c3)cc2O)cn1)[C@@H]1C[C@@]2(C)CC[C@](C)(N2)[C@@H]1F [Compound 22E1, 2-(5-(((1S,2R,3R,5R)-2-fluoro-1,5-dimethyl-8-azabicyclo[3.2.1]octan-3-yl)(methyl)amino)pyrazin-2-yl)-5-(1H-pyrazol-4-yl)phenol] | 501 to 10000 | 10 | 63 | 78 | 4.14 | 39.8 | – | – | – | – | – | – | – | – | – | – | – | –
2 | CN(c1cnc(-c2ccc(-c3cn[nH]c3)cc2O)cn1)[C@H]1C[C@]2(C)CC[C@@](C)(N2)[C@H]1F [Compound 22E2, 2-(5-(((1R,2S,3S,5S)-2-fluoro-1,5-dimethyl-8-azabicyclo[3.2.1]octan-3-yl)(methyl)amino)pyrazin-2-yl)-5-(1H-pyrazol-4-yl)phenol] | 501 to 10000 | 10 | 66 | 81 | 3.49 | 34.5 | – | – | – | – | – | – | – | – | – | – | – | –
3 | COc1cc(-c2cc(O)c(-c3cnc(N(C)[C@@H]4C[C@@]5(C)CC[C@](C)(N5)[C@@H]4F)cn3)cc2F)cnn1 (single isomer, unassigned) [Compound 64E2] | 101 to 500 | – | – | – | – | – | 69 | 78 | 4.1 10^−6, cm/s | 44.1 10^−6, cm/s | 11 | – | – | – | – | – | – | –
4 | CN(c1cnc(-c2cc(F)c(-c3cnn(C)c3)cc2O)cn1)[C@H]1C[C@@H]2CCC(N2)[C@H]1F (single isomer, unassigned) [Compound 17E2] | 0.01 to 15 | – | – | – | – | – | 24 | 52 | 4.68 10^−6, cm/s | 18 10^−6, cm/s | 4 | 101 to 500 | – | – | – | – | – | –
5 | CN(c1cnc(-c2cc(F)c(-c3ccn(C)c(=O)c3)cc2O)cn1)[C@@H]1C[C@@]2(C)CC[C@](C)(N2)[C@@H]1F [Compound 62E1, 4-(2-fluoro-4-(5-(((1S,2R,3R,5R)-2-fluoro-1,5-dimethyl-8-azabicyclo[3.2.1]octan-3-yl)(methyl)amino)pyrazin-2-yl)-5-hydroxyphenyl)-1-methylpyridin-2(1H)-one] | 501 to 10000 | 11 | – | – | – | – | – | – | 2.88 10^−6, cm/s | 41.5 10^−6, cm/s | 14 | – | 2.82 | 30.7 | – | – | – | –
6 | CN(c1cnc(-c2ccc(-c3cn[nH]c3)cc2O)cn1)[C@H]1CC2CCC[C@@H](N2)[C@H]1F (single isomer, unassigned) [Compound 6E2] | 0.01 to 15 | 6 | – | – | – | – | 70 | 58 | – | – | – | 16 to 50 | 3.67 | 22.2 | – | – | – | –
7 | CN(c1cnc(-c2ccc(-c3cnn(C)c3)cc2O)cn1)[C@H]1C[C@@H]2CCC(N2)[C@H]1F (single isomer, unassigned) [Compound 16E2] | 16 to 50 | 4 | – | – | – | – | 54 | 86 | – | – | – | 101 to 500 | 7.68 | 28.4 | – | – | – | –
8 | COc1cc(-c2ccc(-c3cnc(N(C)[C@H]4C[C@@H]5COCC(N5)[C@H]4F)cn3)c(O)c2)ccn1 (single isomer, unassigned) [Compound 81E2] | 501 to 10000 | 2 | – | – | – | – | 42 | 77 | – | – | – | 101 to 500 | 2 | 3.4 | – | – | – | –
9 | CN(c1cnc(-c2ccc(C3=CC(=O)NC3)cc2O)cn1)[C@H]1C[C@@H]2CCC(N2)[C@H]1F (single isomer, unassigned) [Compound 78E2] | 16 to 50 | 55 | – | – | – | – | 94 | 82 | – | – | – | 501 to 10000 | 0.56 | 30.7 | – | – | – | –
10 | CN(c1cnc(-c2ccc(-c3ccn(C)c(=O)c3)cc2O)cn1)[C@H]1CC2CCC[C@@H](N2)[C@H]1F (single isomer, unassigned) [Compound 5E2] | 16 to 50 | 22 | – | – | – | – | 78 | 82 | – | – | – | 101 to 500 | 1.96 | 43 | – | – | – | –
11 | CN(c1cnc(-c2ccc(-c3ccn(C)c(=O)c3)cc2O)cn1)[C@@H]1C[C@H]2CCC[C@H](N2)[C@@H]1F [Compound 5E1, 4-(4-(5-(((1S,2S,3R,5R)-2-fluoro-9-azabicyclo[3.3.1]nonan-3-yl)(methyl)amino)pyrazin-2-yl)-3-hydroxyphenyl)-1-methylpyridin-2(1H)-one] | 0.01 to 15 | 25 | – | – | – | – | 84 | 90 | – | – | – | 51 to 100 | 2.04 | 50.3 | – | – | – | –
12 | Cn1cc(-c2ccc(-c3cnc(N(C4CC4)[C@@H]4CC5CC[C@H](N5)[C@@H]4F)cn3)c(O)c2)cn1 (single isomer, unassigned) [Compound 49E2] | 501 to 10000 | – | – | – | – | – | 48 | 63 | 4.55 10^−6, cm/s | 34.9 10^−6, cm/s | 8 | – | – | – | – | – | – | –
13 | COc1cc(-c2ccc(-c3cnc(N(C)[C@H]4C[C@@H]5CCC(N5)[C@H]4F)cn3)c(O)c2)cnn1 (single isomer, unassigned) [Compound 26E2] | 16 to 50 | 8 | – | – | – | – | 41 | 67 | – | – | – | 101 to 500 | 3.16 | 23.9 | – | – | – | –
14 | COc1cc(-c2ccc(-c3cnc(N(C)[C@@H]4C[C@@]5(C)CC[C@](C)(N5)[C@@H]4F)cn3)c(O)c2)cnn1 [Compound 25E1, 2-(5-(((1S,2R,3R,5R)-2-fluoro-1,5-dimethyl-8-azabicyclo[3.2.1]octan-3-yl)(methyl)amino)pyrazin-2-yl)-5-(6-methoxypyridazin-4-yl)phenol] | 501 to 10000 | 7 | – | – | – | – | 45 | 64 | – | – | – | 501 to 10000 | 5.6 | 39.6 | – | – | – | –
15 | CNC(=O)/C=C/c1cc(O)c(-c2cnc(N(C3CC3)[C@H]3C[C@]4(C)CC[C@@](C)(N4)[C@H]3F)cn2)cc1F (single isomer, unassigned) [Compound 79E2] | – | – | – | – | – | – | 91 | 89 | – | – | – | – | 2.05 | 52.7 | 26 | – | – | –
16 | COc1cc(-c2ccc(-c3cnc(N(C)[C@@H]4CC5CC[C@H](N5)[C@@H]4F)cn3)c(O)c2)ncn1 (single isomer, unassigned) [Compound 48E1] | 16 to 50 | 2 | – | – | – | – | 21 | 44 | – | – | – | 101 to 500 | 4.15 | 6.9 | – | – | – | –
17 | CN(c1cnc(-c2cc(F)c(-c3cn[nH]c3)cc2O)cn1)[C@@H]1C[C@@]2(C)CC[C@](C)(N2)[C@@H]1F [Compound 57E1, 4-fluoro-2-(5-(((1S,2R,3R,5R)-2-fluoro-1,5-dimethyl-8-azabicyclo[3.2.1]octan-3-yl)(methyl)amino)pyrazin-2-yl)-5-(1H-pyrazol-4-yl)phenol] | 16 to 50 | 3 | – | – | – | – | 37 | 59 | – | – | – | 101 to 500 | 5.9 | 18.8 | – | – | – | –
18 | CN(C)C(=O)c1cc2cc(O)c(-c3cnc(N(C)[C@@H]4C[C@H]5CCC(N5)[C@@H]4F)cn3)cc2o1 (single isomer, unassigned) [Compound 7E1] | 501 to 10000 | 24 | – | – | – | – | 91 | 88 | – | – | – | 501 to 10000 | 1.78 | 42.4 | – | – | – | –
19 | 2-(5-(((1S,2S,3R,5R)-2-fluoro-8-azabicyclo[3.2.1]octan-3-yl)(methyl)aniino)pyrazin-2-yl)-5-(6-methoxypyrimidin-4-yl)phenol [Compound 34E1] | 101 to 500 | – | 20 | 60 | – | – | – | – | – | – | – | – | – | – | – | 2.78 10^−6, cm/s | 8.79 10^−6, cm/s | 3
